The term pIC50 denotes the negative decadic logarithm of the IC50, by convention in mol/L. A low value points to a high IC50.

pIC50: −log10 of the molar value.

For this test, the target named is T1, Integrin alpha-4/beta-7 (Homo sapiens, UniProt P13612+P26010).
T1 sequence (P13612 whole entry): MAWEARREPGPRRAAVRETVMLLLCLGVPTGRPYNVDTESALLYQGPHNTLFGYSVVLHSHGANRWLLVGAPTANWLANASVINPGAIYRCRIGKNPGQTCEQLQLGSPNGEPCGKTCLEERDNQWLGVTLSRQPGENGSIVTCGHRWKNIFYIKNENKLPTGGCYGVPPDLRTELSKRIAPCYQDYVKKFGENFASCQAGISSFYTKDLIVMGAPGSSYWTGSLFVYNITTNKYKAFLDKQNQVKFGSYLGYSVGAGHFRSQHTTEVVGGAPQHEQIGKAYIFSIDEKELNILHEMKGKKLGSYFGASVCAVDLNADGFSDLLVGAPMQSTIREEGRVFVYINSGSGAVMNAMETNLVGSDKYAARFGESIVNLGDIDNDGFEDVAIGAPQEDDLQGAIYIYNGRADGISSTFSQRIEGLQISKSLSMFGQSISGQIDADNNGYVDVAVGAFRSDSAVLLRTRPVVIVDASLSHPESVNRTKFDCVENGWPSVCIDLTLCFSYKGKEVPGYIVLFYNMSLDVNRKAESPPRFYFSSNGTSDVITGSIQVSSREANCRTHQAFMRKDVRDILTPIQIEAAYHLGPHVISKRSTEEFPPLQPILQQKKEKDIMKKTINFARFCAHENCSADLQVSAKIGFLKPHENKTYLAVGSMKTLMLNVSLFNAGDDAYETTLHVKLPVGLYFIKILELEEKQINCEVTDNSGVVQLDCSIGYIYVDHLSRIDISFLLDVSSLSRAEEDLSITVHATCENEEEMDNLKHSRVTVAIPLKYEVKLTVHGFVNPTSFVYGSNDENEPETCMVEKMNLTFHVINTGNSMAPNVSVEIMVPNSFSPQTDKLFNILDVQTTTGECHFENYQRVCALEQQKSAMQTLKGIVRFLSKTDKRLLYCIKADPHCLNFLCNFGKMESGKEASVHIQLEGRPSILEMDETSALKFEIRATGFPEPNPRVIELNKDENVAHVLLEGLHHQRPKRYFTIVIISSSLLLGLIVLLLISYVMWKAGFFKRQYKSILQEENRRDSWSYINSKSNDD
T1 sequence (P26010 whole entry): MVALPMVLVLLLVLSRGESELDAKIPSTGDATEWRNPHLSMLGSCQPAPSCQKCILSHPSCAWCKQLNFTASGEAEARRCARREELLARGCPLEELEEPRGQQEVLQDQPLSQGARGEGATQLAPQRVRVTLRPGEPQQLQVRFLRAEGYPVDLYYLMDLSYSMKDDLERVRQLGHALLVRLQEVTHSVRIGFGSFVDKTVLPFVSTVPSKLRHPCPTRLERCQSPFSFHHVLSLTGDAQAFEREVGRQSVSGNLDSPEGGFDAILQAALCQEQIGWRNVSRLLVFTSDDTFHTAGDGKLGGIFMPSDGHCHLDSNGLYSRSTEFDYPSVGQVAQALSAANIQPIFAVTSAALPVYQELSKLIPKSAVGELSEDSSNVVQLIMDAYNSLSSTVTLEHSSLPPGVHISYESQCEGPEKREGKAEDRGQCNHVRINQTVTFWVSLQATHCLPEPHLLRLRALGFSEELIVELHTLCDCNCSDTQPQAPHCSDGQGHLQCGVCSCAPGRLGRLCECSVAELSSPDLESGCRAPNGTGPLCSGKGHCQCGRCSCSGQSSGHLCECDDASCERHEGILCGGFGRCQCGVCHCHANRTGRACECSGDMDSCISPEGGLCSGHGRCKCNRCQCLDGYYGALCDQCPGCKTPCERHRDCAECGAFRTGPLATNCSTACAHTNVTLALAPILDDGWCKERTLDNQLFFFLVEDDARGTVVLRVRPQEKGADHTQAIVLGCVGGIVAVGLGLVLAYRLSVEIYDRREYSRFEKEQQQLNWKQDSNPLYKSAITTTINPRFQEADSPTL
The test is described as follows: K562 Cell Adhesion Assay (alpha4beta7 Mediated Adhesion/MAdCAM-1). The note with it: pH 7.4; 23 °C. The procedure: M2 anti-FLAG antibody coated 96-well plates were coated with recombinant FLAG-hMAdCAM-1 contained in Dulbecco PBS. The compounds to be tested were added. Stably transfected K562 cells expressing human alpha4beta7 integrin that had been labeled with […] fluorescein diacetate succinimidyl ester (CFDA-SE) were added to each well and allowed to adhere for 1 h at room temperature. Plates were washed, and then cells were lysed. The plate was read on a 96-well fluorescent plate reader at 485 nm excitation and 530 nm emission.
Consider `O=C(Nc1ccc(C[C@H](NC(=O)[C@@H]2C3CCC(CC3)N2S(=O)(=O)c2ccccc2)C(=O)O)cc1)c1cc(Cl)nc(Cl)c1` [(2S)-2-{[(3S)-2-(benzenesulfonyl)-2-azabicyclo[2.2.2]octan-3-yl]formamido}-3-{4-[(2,6-dichloropyridine-4-)amido]phenyl}propanoic acid], for which the pIC50 is 7.34.

`O=C(Nc1ccc(C[C@H](NC(=O)[C@@H]2C3CCC(CC3)N2S(=O)(=O)c2ccccc2)C(=O)O)cc1)c1ccncc1` [(2S)-2-{[(3S)-2-(benzenesulfonyl)-2-azabicyclo[2.2.2]octan-3-yl]formamido}-3-[4-(pyridine-4-amido)phenyl]propanoic acid] gave a negative-log IC50 (pIC50) of 6.92.

`O=C(O)[C@H](Cc1ccc(N2C(=O)c3ccccc3C2=O)cc1)NC(=O)[C@@H]1C2CCC(CC2)N1S(=O)(=O)c1ccccc1` had a pIC50 of 6.96.

(Values after BindingDB's records for doi:10.1016/j.bmc.2006.01.067 (Johnson & Johnson Pharmaceutical, 2006).)
